This is an account of results in PubChem BioAssay (NCI).

Among the test systems are RXF 393 renal; SW-620 colon; MDA-MB-435; EKVX NSCLC; NCI-H23 lung; A549 NSCLC; OVCAR-4 ovarian; HL-60(TB) leukemia; MDA-MB-231 breast; ACHN renal.
What all share (experiment): NCI tumour cell line growth inhibition, 48 h

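These data come from cells grown in 96-well plates and exposed to compound for 48 hours at five concentrations. The concentration for 50% growth inhibition is given as GI50. TGI: total growth inhibition.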

For the compound `Clc1ccc2c(c1)N(C1CCCN(Cc3ccccc3)C1)c1ccccc1S2` (stereo unspecified), the GI50 was 3.69 µM in the assay with RXF 393 renal; 2.98 µM with SW-620 colon; 1.79 µM with MDA-MB-435; 4.22 µM in the assay on EKVX NSCLC; 9.33 µM in the assay on NCI-H23 lung; 4.94 µM in the assay on A549 NSCLC. For the same compound, the GI50 was 18 µM in the assay on OVCAR-4 ovarian, 4.52 µM in the assay with HL-60(TB) leukemia, 3.35 µM in the assay on MDA-MB-231 breast and 7.22 µM with ACHN renal. For the same compound, the TGI in the assay with RXF 393 renal was 25.3 µM; in the assay on SW-620 colon, 32.5 µM; in the assay on MDA-MB-435 it was 3.72 µM; in the assay on EKVX NSCLC, 79.9 µM; with NCI-H23 lung, over 100 µM; with A549 NSCLC it was over 100 µM. The TGI was over 100 µM in the assay with OVCAR-4 ovarian, 72.5 µM in the assay on HL-60(TB) leukemia, 13.1 µM in the assay on MDA-MB-231 breast and over 100 µM in the assay with ACHN renal.

In the case of `COc1ccccc1/C=C\C(=O)C1COCN1` (stereo unspecified), the TGI in the assay with RXF 393 renal is 81.8 µM; with SW-620 colon it was 19.4 µM; in the assay with MDA-MB-435, 26.4 µM; with EKVX NSCLC, 42.6 µM; in the assay with NCI-H23 lung it was over 100 µM; in the assay with A549 NSCLC, 48.8 µM. In addition, the TGI with OVCAR-4 ovarian was 53.2 µM; with HL-60(TB) leukemia, over 100 µM; with MDA-MB-231 breast, 38.8 µM; with ACHN renal, 26.3 µM.

`NC(Cc1c[nH]c2ccc([N+](=O)[O-])cc12)C(=O)O` (stereo unspecified): the TGI with RXF 393 renal, in the assay on SW-620 colon, in the assay with MDA-MB-435, in the assay on EKVX NSCLC, in the assay on NCI-H23 lung and with A549 NSCLC was over 100 µM each time. The TGI with OVCAR-4 ovarian, with HL-60(TB) leukemia, with MDA-MB-231 breast and with ACHN renal was over 100 µM throughout.

Regarding `COc1ccccc1[As]=[As]c1ccccc1OC` (stereo unspecified), the GI50 is 0.0257 µM in the assay with RXF 393 renal; 0.0182 µM in the assay with SW-620 colon; 0.0511 µM with MDA-MB-435; 0.12 µM with EKVX NSCLC; 0.0653 µM in the assay on NCI-H23 lung; 0.0973 µM in the assay with A549 NSCLC. In addition, the GI50 in the assay with OVCAR-4 ovarian was 0.0372 µM; in the assay with HL-60(TB) leukemia, 0.0492 µM; with MDA-MB-231 breast, 0.0564 µM; with ACHN renal, 0.0613 µM. In addition, the TGI is 0.0644 µM in the assay on RXF 393 renal; 0.0403 µM with SW-620 colon; 0.196 µM with MDA-MB-435; 0.271 µM in the assay on EKVX NSCLC; 0.204 µM with NCI-H23 lung; 0.289 µM in the assay on A549 NSCLC. The TGI is 0.146 µM with OVCAR-4 ovarian, 0.262 µM with HL-60(TB) leukemia, 0.182 µM in the assay on MDA-MB-231 breast and 0.186 µM in the assay on ACHN renal.

For the compound `N#Cc1nc(C#N)c(Sc2ccccc2)c(Sc2ccccc2)c1Sc1ccccc1`, the GI50 is 0.98 µM in the assay on RXF 393 renal; 0.232 µM in the assay with SW-620 colon; 0.684 µM in the assay on MDA-MB-435; 1.25 µM with EKVX NSCLC; 0.36 µM with NCI-H23 lung; 2.74 µM in the assay with OVCAR-4 ovarian. Besides, the GI50 in the assay on HL-60(TB) leukemia was 1.88 µM; with MDA-MB-231 breast it was 0.296 µM; in the assay with ACHN renal, 0.395 µM. Moreover, the TGI with RXF 393 renal was 3.22 µM; in the assay with SW-620 colon it was 0.5 µM; in the assay with MDA-MB-435, 7.17 µM; with EKVX NSCLC, over 100 µM; in the assay on NCI-H23 lung it was 2.35 µM; in the assay on OVCAR-4 ovarian, over 27.8 µM. Besides, the figures for the TGI in the assay with HL-60(TB) leukemia, with MDA-MB-231 breast and with ACHN renal were over 29.5 µM, 0.773 µM and 1.79 µM, respectively.

Regarding `COS(C)(=O)=O`, the TGI in the assay on RXF 393 renal, in the assay on SW-620 colon, with MDA-MB-435, with EKVX NSCLC, in the assay on NCI-H23 lung and in the assay with A549 NSCLC was over 2 µM each time. The TGI in the assay on OVCAR-4 ovarian, in the assay on HL-60(TB) leukemia, in the assay on MDA-MB-231 breast and in the assay with ACHN renal was over 2 µM in each case.

On to `CC(=O)Nc1cc2cc(NS(=O)(=O)c3ccc(Cl)c(Cl)c3)ccc2oc1=O`, for which the TGI was 25.6 µM in the assay on RXF 393 renal; over 100 µM with SW-620 colon; over 100 µM in the assay with MDA-MB-435; over 100 µM with EKVX NSCLC; over 100 µM in the assay with NCI-H23 lung; over 100 µM in the assay with A549 NSCLC. Moreover, the TGI in the assay on OVCAR-4 ovarian was over 100 µM; in the assay with HL-60(TB) leukemia it was over 100 µM; in the assay on MDA-MB-231 breast it was 46.2 µM; in the assay on ACHN renal, over 100 µM.

Turning to `c1ccc(Oc2ccc(Nc3ncc(-c4ccccc4)o3)cc2)cc1`, the GI50 in the assay with RXF 393 renal, with SW-620 colon, with MDA-MB-435, in the assay on EKVX NSCLC, with NCI-H23 lung and in the assay on A549 NSCLC was over 25 µM throughout. The GI50 with OVCAR-4 ovarian, with HL-60(TB) leukemia, in the assay on MDA-MB-231 breast and in the assay with ACHN renal was over 25 µM throughout. The TGI in the assay with RXF 393 renal, in the assay with SW-620 colon, with MDA-MB-435, in the assay on EKVX NSCLC, in the assay on NCI-H23 lung and in the assay with A549 NSCLC was over 25 µM each time. The TGI in the assay with OVCAR-4 ovarian, in the assay with HL-60(TB) leukemia, in the assay with MDA-MB-231 breast and with ACHN renal was over 25 µM in each case.

For `CC(=O)Nc1ccc(S(=O)(=O)N=S(C)C)cc1`, the TGI with RXF 393 renal, in the assay on SW-620 colon, in the assay on MDA-MB-435, in the assay on EKVX NSCLC, in the assay with NCI-H23 lung and in the assay with A549 NSCLC was over 100 µM in each case. Besides, the TGI in the assay with OVCAR-4 ovarian, in the assay on HL-60(TB) leukemia, in the assay on MDA-MB-231 breast and in the assay with ACHN renal was over 100 µM each time.

For `CC1=C(C(=O)Nc2ccc(F)c(Cl)c2)C(c2cccc(Oc3ccccc3)c2)NC(=S)N1` (stereo unspecified), the GI50 in the assay with RXF 393 renal was 6.79 µM; in the assay with SW-620 colon, 16.2 µM; in the assay with MDA-MB-435, 11.9 µM; with EKVX NSCLC it was 14.8 µM; in the assay on NCI-H23 lung, 19.3 µM; with A549 NSCLC, 13.7 µM. Also, the GI50 with HL-60(TB) leukemia is 17.4 µM; with MDA-MB-231 breast, 10.7 µM; in the assay on ACHN renal, 12.3 µM. For the same compound, the TGI in the assay with RXF 393 renal is 15.6 µM; with SW-620 colon, 44.2 µM; with MDA-MB-435, 33.8 µM; with EKVX NSCLC it was 41.5 µM; in the assay on NCI-H23 lung it was 39.4 µM; in the assay with A549 NSCLC, over 50 µM. Besides, the TGI was over 50 µM in the assay with HL-60(TB) leukemia, 22.9 µM with MDA-MB-231 breast and 36.1 µM in the assay with ACHN renal.

`CS(=O)(=O)c1cccc(Nc2ncc3cc(-c4ccccc4Cl)ccc3n2)c1`: the GI50 in the assay with RXF 393 renal was 1.05 µM; with SW-620 colon, 1.78 µM; with MDA-MB-435, 0.657 µM; in the assay on EKVX NSCLC it was 1.37 µM; in the assay with NCI-H23 lung it was 1.98 µM; in the assay on A549 NSCLC it was 1.78 µM. Also, the GI50 is 1.51 µM in the assay on OVCAR-4 ovarian, 1.36 µM in the assay on HL-60(TB) leukemia, 1.37 µM with MDA-MB-231 breast and 1.01 µM with ACHN renal. The TGI with RXF 393 renal is 6.24 µM; with SW-620 colon, over 33.3 µM; in the assay with MDA-MB-435, 1.9 µM; in the assay with EKVX NSCLC, over 33.3 µM; with NCI-H23 lung it was over 33.3 µM; with A549 NSCLC, over 33.3 µM. For the same compound, the TGI with OVCAR-4 ovarian was over 33.3 µM; in the assay on HL-60(TB) leukemia it was over 33.3 µM; with MDA-MB-231 breast it was 12.2 µM; in the assay with ACHN renal it was over 33.3 µM.

With `COc1cc2ncnc(Nc3ccc(Oc4ccnc(C)c4)c(C)c3)c2cc1NC(=O)CC1CCSS1` (stereo unspecified), the GI50 is 1.5 µM with RXF 393 renal; 1.14 µM in the assay with SW-620 colon; 0.976 µM in the assay on MDA-MB-435; 1.36 µM with EKVX NSCLC; 1.07 µM in the assay with NCI-H23 lung; 1.54 µM in the assay on OVCAR-4 ovarian. The GI50 with HL-60(TB) leukemia was 1.28 µM; in the assay on MDA-MB-231 breast, 0.895 µM; in the assay with ACHN renal it was 1.49 µM. Moreover, the TGI with RXF 393 renal was over 50 µM; with SW-620 colon it was 2.71 µM; in the assay on MDA-MB-435 it was 2.48 µM; in the assay on EKVX NSCLC it was over 50 µM; in the assay with NCI-H23 lung, 2.5 µM; in the assay on OVCAR-4 ovarian, 24.3 µM. In addition, the TGI in the assay with HL-60(TB) leukemia is 2.83 µM; with MDA-MB-231 breast, 1.98 µM; in the assay on ACHN renal, 8.48 µM.

Consider `CCCc1nc(Cl)c(Cl)c(Cl)n1`, for which the TGI was 56.4 µM with RXF 393 renal; over 52.2 µM in the assay on SW-620 colon; over 62 µM with MDA-MB-435; 43.7 µM in the assay with EKVX NSCLC; over 100 µM in the assay on NCI-H23 lung; over 100 µM with A549 NSCLC. Besides, the figures for the TGI in the assay on OVCAR-4 ovarian, with HL-60(TB) leukemia and with MDA-MB-231 breast were 33.4 µM, 37.2 µM and 67.9 µM, respectively.

Regarding `CCCCOc1ccc(/C=N/Nc2cc(C)nc3ccc(Br)cc23)cc1`, the GI50 with RXF 393 renal is 1.6 µM; in the assay with MDA-MB-435, 1.8 µM; with EKVX NSCLC it was 1.63 µM; in the assay on NCI-H23 lung, 1.86 µM; with A549 NSCLC, 1.88 µM; in the assay with OVCAR-4 ovarian it was 1.67 µM. The GI50 in the assay on HL-60(TB) leukemia was 2.02 µM; in the assay on MDA-MB-231 breast it was 1.88 µM; in the assay on ACHN renal it was 1.73 µM. For the same compound, the TGI in the assay on RXF 393 renal turned out to be 3.05 µM; with MDA-MB-435, 3.27 µM; in the assay with EKVX NSCLC, 3.03 µM; in the assay on NCI-H23 lung, 3.76 µM; in the assay with A549 NSCLC, 3.52 µM; in the assay on OVCAR-4 ovarian, 3.06 µM. In addition, the TGI in the assay with HL-60(TB) leukemia came out at 4.07 µM; with MDA-MB-231 breast, 3.51 µM; in the assay on ACHN renal, 3.11 µM.
